Several values for one entry are separate records, joined by “and”; a condition that tells them apart may be missing. Equal values may be shown once.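 Five compound concentrations were applied to cells in 96-well plates for 48 hours; endpoints were derived by simple linear interpolation of the resulting dose-response curve. Abbreviation: GI50, concentration required for 50% inhibition of growth. TGI marks complete inhibition of growth.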
Tests used:
Experiment in all cases: growth of human tumour cells (NCI), 48 h
HOP-92 NSCLC = tested on: HOP-92 NSCLC
SNB-19 CNS = tested on: SNB-19 CNS
MDA-MB-435 = tested on: MDA-MB-435
HT29 colon = tested on: HT29 colon
UACC-257 melanoma = tested on: UACC-257 melanoma
SF-539 CNS = tested on: SF-539 CNS
RXF 393 renal = tested on: RXF 393 renal
SK-OV-3 ovarian = tested on: SK-OV-3 ovarian
MALME-3M melanoma = tested on: MALME-3M melanoma
OVCAR-5 ovarian = tested on: OVCAR-5 ovarian

SMILES	GI50 (HOP-92 NSCLC)	TGI (HOP-92 NSCLC)	GI50 (SNB-19 CNS)	TGI (SNB-19 CNS)	GI50 (MDA-MB-435)	TGI (MDA-MB-435)	GI50 (HT29 colon)	TGI (HT29 colon)	GI50 (UACC-257 melanoma)	TGI (UACC-257 melanoma)	GI50 (SF-539 CNS)	TGI (SF-539 CNS)	GI50 (RXF 393 renal)	TGI (RXF 393 renal)	TGI (SK-OV-3 ovarian)	GI50 (MALME-3M melanoma)	TGI (MALME-3M melanoma)	GI50 (OVCAR-5 ovarian)	TGI (OVCAR-5 ovarian)	GI50 (SK-OV-3 ovarian)
CNC(=O)c1ccc(Nc2nc(OC3CCCC3)c3c(-c4ccc5nc(C)oc5c4)c[nH]c3n2)c(OC)c1	2.54 µM	> 100 µM	10 µM	> 100 µM	> 100 µM	> 100 µM	4.99 µM	> 100 µM	> 100 µM	> 100 µM	0.332 µM	> 100 µM	> 100 µM	> 100 µM	> 100 µM	21.6 µM	> 100 µM	64.2 µM	> 100 µM	–
O=C1C=CC(=O)N1c1ccc2c(c1)Cc1cc(NC(=O)C(F)(F)F)ccc1-2	–	33.1 µM	–	> 65.5 µM	–	31.5 µM	–	25.5 µM	–	35.8 µM	–	32.8 µM	–	23.7 µM	> 100 µM	–	40.1 µM	–	31.8 µM	–
C=C1C(=O)O[C@H]2[C@H]1CC/C(COC(=O)NCCc1c[nH]c3ccccc13)=C\CC[C@@]1(C)O[C@@H]21	1.27 µM	3.07 µM	6.46 µM	20.2 µM	1.62 µM	3.9 µM	1.55 µM	3.78 µM	2 µM	4.83 µM	1.62 µM	3.29 µM	1.16 µM	2.56 µM	25.1 µM	1.94 µM	3.82 µM	2.3 µM	5.75 µM	12.5 µM
Cc1cc(-c2cc(C)c(O)c(C(C)(C)C)c2)cc(C(C)(C)C)c1O	15.1 µM and 4.92 µM	29.8 µM and 17.5 µM	–	27.7 µM and 26.7 µM	–	26.4 µM and 28 µM	–	12.7 µM and 16.4 µM	–	24.1 µM and 24.7 µM	–	28.2 µM and 35.4 µM	–	25.5 µM and 26.1 µM	29.2 µM and 30.4 µM	–	28.3 µM and 41.1 µM	–	24.4 µM and 28.4 µM	–
Cc1ccc(-c2nc3nc(-c4ccc(Cl)cc4)nc(N4CCCNCC4)c3o2)cc1	1.36 µM	2.91 µM	1.7 µM	3.12 µM	1.81 µM	3.25 µM	1.93 µM	3.94 µM	1.91 µM	3.65 µM	1.71 µM	3.12 µM	1.58 µM	3.03 µM	3.29 µM	1.7 µM	3.17 µM	1.53 µM	2.87 µM	1.75 µM
O=C(CSc1nc2sc3c(c2c(=O)n1-c1ccccc1)CCCCC3)N/N=C/c1ccc(F)cc1	2.47 µM	8.65 µM	3.45 µM	13.2 µM	10.3 µM	> 100 µM	2.4 µM	7.04 µM	7.54 µM	> 100 µM	1.85 µM	3.53 µM	2.39 µM	7.18 µM	11.8 µM	1.67 µM	5.86 µM	3.76 µM	20.6 µM	3.47 µM
C=C1C(=O)O[C@H]2[C@H]1CC/C(COC(=O)N[C@@H](Cc1c[nH]c3ccccc13)C(=O)OC)=C\CC[C@@]1(C)O[C@@H]21	1.42 µM	2.98 µM	2.48 µM	7.52 µM	1.49 µM	3.25 µM	1.44 µM	3.04 µM	1.86 µM	3.97 µM	1.45 µM	2.92 µM	0.998 µM	2.29 µM	24.6 µM	1.51 µM	3.07 µM	2.02 µM	4.92 µM	12 µM
Cn1c(Cc2ccccc2)nc2cc3ccccc3cc21	10.7 µM	34.6 µM	39.3 µM	> 100 µM	25.2 µM	80 µM	43.3 µM	> 100 µM	26.8 µM	61.9 µM	20.6 µM	37.4 µM	35.6 µM	> 100 µM	> 100 µM	20.7 µM	50.6 µM	42.5 µM	> 100 µM	49.6 µM
C[C@]12CC[C@@H]3c4ccc(OCC(=O)O)cc4CC[C@H]3[C@@H]1CCC2=O	–	> 100 µM	–	> 100 µM	–	> 100 µM	–	> 100 µM	–	> 100 µM	–	> 100 µM	–	> 100 µM	> 100 µM	–	> 100 µM	–	> 100 µM	–
O=C(/C=C/C12c3ccccc3C(c3ccccc31)C1C(=O)NC(=O)C12)c1ccco1 (stereo not given)	1.74 µM	4.54 µM	2.19 µM	5.17 µM	2.35 µM	5.84 µM	2.28 µM	5.06 µM	4.4 µM	15.6 µM	2.04 µM	4.16 µM	1.79 µM	3.48 µM	12.8 µM	2.35 µM	6.72 µM	3.15 µM	10.7 µM	4.01 µM
C/C(=C\c1ccn(-c2ccc(N)cc2C(F)(F)F)n1)[C@@H]1C[C@@H]2O[C@]2(C)CCC[C@H](C)[C@H](O)[C@@H](C)C(=O)C(C)(C)[C@@H](O)CC(=O)O1	1.27 µM	> 11.1 µM	0.553 µM	> 11.1 µM	0.0599 µM	0.286 µM	0.117 µM	0.996 µM	1.03 µM	> 11.1 µM	0.305 µM	1.86 µM	0.395 µM	4.21 µM	> 11.1 µM	0.736 µM	> 11.1 µM	0.519 µM	> 11.1 µM	0.42 µM
CN(C)c1ccc2[nH]c(O)c(C=Nc3ccc(S(N)(=O)=O)cc3)c2c1	> 25 µM	> 25 µM	> 25 µM	> 25 µM	> 25 µM	> 25 µM	> 25 µM	> 25 µM	> 25 µM	> 25 µM	> 25 µM	> 25 µM	> 25 µM	> 25 µM	> 25 µM	> 25 µM	> 25 µM	> 25 µM	> 25 µM	> 25 µM
CN1CCN(Cc2ccc(NC(=O)c3[nH]ncc3Nc3ccnc4ccsc34)cc2)CC1	3.89 µM	8.92 µM	2.81 µM	20.2 µM	3.22 µM	17.9 µM	2.04 µM	33.8 µM	11.6 µM	30 µM	1.35 µM	3.42 µM	2.01 µM	4.76 µM	23.5 µM	3.44 µM	13.7 µM	4.08 µM	14.7 µM	1.05 µM
CCSc1nc(=S)[nH]c2[nH]ncc12	91.6 µM	> 100 µM	> 100 µM	> 100 µM	63.1 µM	> 100 µM	> 100 µM	> 100 µM	> 100 µM	> 100 µM	45.1 µM	> 100 µM	98.3 µM	> 100 µM	> 100 µM	> 100 µM	> 100 µM	> 100 µM	> 100 µM	78.9 µM
C[C@]12CC[C@H]3[C@@H](CC=C4C[C@@H](O)CC[C@@]43C)[C@@H]1C/C(=C\c1cccc(OCCCn3ccnc3)c1)[C@@H]2O	8.4 µM	25.7 µM	17.1 µM	37.6 µM	9.99 µM	42.6 µM	3.85 µM	18.1 µM	13.1 µM	29.2 µM	8.01 µM	23.7 µM	4.7 µM	20.8 µM	32.7 µM	15.7 µM	35.9 µM	17.2 µM	32.9 µM	16.2 µM

— PubChem BioAssay (NCI)
